Results published in patent publication US20240199546A1, “INHIBITORS OF SOLUTE CARRIER FAMILY 6A MEMBER 19 (SLC6A19) AND METHODS OF USE THEREOF” (Maze Therapeutics, Inc., priority 2022, published 2024).
pIC50: −log10 of the molar value.

Molecular target: T1, human SLC6A19 and TMEM27 (Homo sapiens, UniProt Q695T7)
T1 construct: expressed in transfected cells
T1 sequence (Q695T7 1-634): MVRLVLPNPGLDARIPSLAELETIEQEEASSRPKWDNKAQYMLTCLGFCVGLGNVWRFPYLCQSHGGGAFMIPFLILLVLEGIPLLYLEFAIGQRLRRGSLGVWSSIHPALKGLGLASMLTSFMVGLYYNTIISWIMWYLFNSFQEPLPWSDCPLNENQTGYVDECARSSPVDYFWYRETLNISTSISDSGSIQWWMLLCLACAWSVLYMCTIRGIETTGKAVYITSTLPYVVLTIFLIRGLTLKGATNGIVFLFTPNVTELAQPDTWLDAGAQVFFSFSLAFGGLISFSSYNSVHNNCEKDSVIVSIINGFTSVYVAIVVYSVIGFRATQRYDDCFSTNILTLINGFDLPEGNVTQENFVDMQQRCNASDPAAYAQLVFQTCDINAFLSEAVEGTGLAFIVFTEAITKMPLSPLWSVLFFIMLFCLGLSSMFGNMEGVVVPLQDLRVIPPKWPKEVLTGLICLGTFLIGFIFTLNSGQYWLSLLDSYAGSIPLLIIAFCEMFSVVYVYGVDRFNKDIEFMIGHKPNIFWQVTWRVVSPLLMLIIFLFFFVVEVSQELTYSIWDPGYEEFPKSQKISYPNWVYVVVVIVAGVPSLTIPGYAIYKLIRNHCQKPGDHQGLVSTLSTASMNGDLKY
T1 sequence (Q9HBJ8 15-222 partner): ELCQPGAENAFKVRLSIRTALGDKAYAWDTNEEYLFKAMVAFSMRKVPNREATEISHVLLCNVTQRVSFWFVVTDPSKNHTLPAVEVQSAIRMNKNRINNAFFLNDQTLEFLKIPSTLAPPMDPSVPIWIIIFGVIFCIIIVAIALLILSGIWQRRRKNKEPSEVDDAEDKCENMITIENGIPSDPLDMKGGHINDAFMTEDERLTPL
Test: Radiolabelled (3H) leucine uptake in CHO cells with doxycycline-inducible expression of human SLC6A19 and TMEM27 (Example B-1)
Assay type: cell-based
Details: CHO cells with doxycycline-inducible expression of human SLC6A19 and TMEM27, read-out: SLC6A19_Radioligand Uptake Assay IC50
Experimental: The flasks were then incubated (humidified, 37° C. with 5% CO2) for 2 minutes. After incubation, 10 mL of pre-warmed cell culture media was added to each flask. The cell suspension was collected and centrifuged for 5 minutes at 200×g. The supernatant was aspirated and the pellet was resuspended in 5 mL pre-warmed cell culture media. The resuspended cells were counted using the Countess Cell Counting Chamber (Invitrogen) and the cell concentration of the suspension was readjusted to 1 million live cells/mL using pre-warmed cell culture media. […] Assay plates were then incubated (humidified, 37° C. with 5% CO2) for 18 hours. After incubation, the media was aspirated and the wells were washed 4 times with pre-warmed HBSS (Sigma-Aldrich, H8264-1L) using an Apricot S-Pipette S2 (Apricot Designs), such that 5 uL/well HBSS was remaining at the end of each wash. […] At this step, the final in-well DMSO concentration in the assay plate is 0.5%. All compounds were plated in a duplicate 8-point dilution series that consisted of 3-fold dilutions. The plates were incubated with compound (humidified, 37° C. with 5% CO2) for 1 hour. […] The plates were then incubated (humidified, 37° C. with 5% CO2) on a plate shaker at 200 rpm for 2 hours. After incubation, the plates were removed from the shaker and kept at room temperature for 15 minutes. Liquid scintillation analysis was performed using the MicroBeta2 Microplate Counter (Perkin Elmer). Activity (%) was derived by normalizing the average of positive control compound treated wells to 0% and the average of DMSO (negative control) wells to 100%. Collaborative Drug Discovery software was used for graphing data.

Structure (SMILES) | pIC50
Cc1cc(COc2cc3[nH]c(CNC(=O)Cn4ccnn4)cc3cc2Cl)on1 [Compound 520, N-((5-chloro-6-((3-methylisoxazol-5-yl)methoxy)-1H-indol-2-yl)methyl)-2-(1H-1,2,3-triazol-1-yl)acetamide] | 5.17
CC1(C(=O)NCc2cc3cc(Cl)c(OCCC4CC4)cc3[nH]2)CC1 [Compound 635, N-((5-chloro-6-(2-cyclopropylethoxy)-1H-indol-2-yl)methyl)-1-methylcyclopropane-1-carboxamide] | 6.71
Cc1cc(COc2cc3[nH]c(CNC(=O)C45COCC4C5)cc3cc2Cl)on1 (stereo not shown) [Compound 300, N-((5-chloro-6-((3-methylisoxazol-5-yl)methoxy)-1H-indol-2-yl)methyl)-3-oxabicyclo[3.1.0]hexane-1-carboxamide] | 6.49
O=C(NCc1cc2cc(F)c(OCc3cscn3)cc2[nH]1)C1(C(F)(F)F)CC1 [Compound 127, N-((5-fluoro-6-(thiazol-4-ylmethoxy)-1H-indol-2-yl)methyl)-1-(trifluoromethyl)cyclopropane-1-carboxamide] | 7.01
Cc1cc(COc2cc3[nH]c(CNC(=O)NCCF)cc3cc2Cl)on1 [Compound 371, 1-((5-chloro-6-((3-methylisoxazol-5-yl)methoxy)-1H-indol-2-yl)methyl)-3-(2-fluoroethyl)urea] | 6.85
[2H]C([2H])([2H])C(=O)NCc1cc2cc(Cl)c(OCc3cscn3)cc2[nH]1 [Compound 570, N-((5-chloro-6-(thiazol-4-ylmethoxy)-1H-indol-2-yl)methyl)acetamide-2,2,2-d3] | 7.09
Cc1cc(CCc2cc3[nH]c(CNC(=O)C4(C)CC4)cc3cc2F)no1 [Compound 593, N-((5-fluoro-6-(2-(5-methylisoxazol-3-yl)ethyl)-1H-indol-2-yl)methyl)-1-methylcyclopropane-1-carboxamide] | 6.66
Cc1cc(COc2cc3[nH]c(CNC(=O)C45CCC(CC4)O5)cc3cc2Cl)on1 [Compound 296, N-((5-chloro-6-((3-methylisoxazol-5-yl)methoxy)-1H-indol-2-yl)methyl)-7-oxabicyclo[2.2.1]heptane-1-carboxamide] | 6.01
O=C(NCc1cc2ccc(OCc3ccon3)cc2[nH]1)N1CCC(F)C1 (stereo not shown) [Compound 200, 3-fluoro-N-((6-(isoxazol-3-ylmethoxy)-1H-indol-2-yl)methyl)pyrrolidine-1-carboxamide] | 6.12
Cc1cc(COc2cc3[nH]c(CNC(=O)[C@@H]4CCCO4)cc3cc2Cl)on1 [Compound 312, (S)-N-((5-chloro-6-((3-methylisoxazol-5-yl)methoxy)-1H-indol-2-yl)methyl)tetrahydrofuran-2-carboxamide] | 6.50
O=C(CCO)NCc1cc2cc(Cl)c(OCc3cscn3)cc2[nH]1 [Compound 309, N-((5-chloro-6-(thiazol-4-ylmethoxy)-1H-indol-2-yl)methyl)-3-hydroxypropanamide] | 5.76
Cc1cc(COc2cc3[nH]c(CNC(=O)[C@H]4CCN4C)cc3cc2Cl)on1 [Compound 575, (R)-N-((5-chloro-6-((3-methylisoxazol-5-yl)methoxy)-1H-indol-2-yl)methyl)-1-methylazetidine-2-carboxamide] | 5.52
O=C(NCc1cc2cc(Cl)c(OCc3cscn3)cc2[nH]1)[C@H]1CCOC1 [Compound 308, (S)-N-((5-chloro-6-(thiazol-4-ylmethoxy)-1H-indol-2-yl)methyl)tetrahydrofuran-3-carboxamide] | 6.77
O=C(NCc1cc2cc(F)c(OCc3ccccn3)cc2[nH]1)C1CC1 [Compound 505, N-((5-fluoro-6-(pyridin-2-ylmethoxy)-1H-indol-2-yl)methyl)cyclopropanecarboxamide] | 6.69

The next lines start with the values.

pIC50 | Structure (SMILES)
5.75 | COC(=O)NCc1cc2cc(F)c(OCc3cc(C)no3)cc2[nH]1 [Compound 621, methyl ((5-fluoro-6-((3-methylisoxazol-5-yl)methoxy)-1H-indol-2-yl)methyl)carbamate]
5.56 | Cc1cc(COc2cc3[nH]c(CNC(=O)[C@@H]4CCN4)cc3cc2Cl)on1 [Compound 448, (S)-N-((5-chloro-6-((3-methylisoxazol-5-yl)methoxy)-1H-indol-2-yl)methyl)azetidine-2-carboxamide]
6.44 | O=C(NCc1cc2cc(Cl)c(OCc3ccon3)cc2[nH]1)C1CCCC1 [Compound 492, N-((5-chloro-6-(isoxazol-3-ylmethoxy)-1H-indol-2-yl)methyl)cyclopentanecarboxamide]
5.81 | Cc1cc(COc2cc3[nH]c(CNC(=O)[C@@H]4C[C@@H](F)CN4)cc3cc2Cl)on1 [Compound 665, (2S,4R)—N-((5-chloro-6-((3-methylisoxazol-5-yl)methoxy)-1H-indol-2-yl)methyl)-4-fluoropyrrolidine-2-carboxamide]
6.79 | Cc1cc(COc2cc3[nH]c(CNC(=O)C4(F)CC4)cc3cc2Cl)on1 [Compound 571, N-((5-chloro-6-((3-methylisoxazol-5-yl)methoxy)-1H-indol-2-yl)methyl)-1-fluorocyclopropane-1-carboxamide]
6.49 | Cc1cc(COc2cc3[nH]c(CNC(=O)C4(C)CC4)cc3cc2OC(F)F)on1 [Compound 606, N-((5-(difluoromethoxy)-6-((3-methylisoxazol-5-yl)methoxy)-1H-indol-2-yl)methyl)-1-methylcyclopropane-1-carboxamide]
5.29 | CC1(C(=O)NCc2cc3ccc(OCc4ccon4)c(F)c3[nH]2)CC1 [Compound 201, N-((7-fluoro-6-(isoxazol-3-ylmethoxy)-1H-indol-2-yl)methyl)-1-methylcyclopropane-1-carboxamide]
6.79 | O=C(NCc1cc2cc(F)c(OCc3cocn3)cc2[nH]1)C1CC1 [Compound 428, N-((5-fluoro-6-(oxazol-4-ylmethoxy)-1H-indol-2-yl)methyl)cyclopropanecarboxamide]
6.75 | O=C(NCc1cc2cc(Cl)c(OCc3cscn3)cc2[nH]1)C1CCC1 [Compound 490, N-((5-chloro-6-(thiazol-4-ylmethoxy)-1H-indol-2-yl)methyl)cyclobutanecarboxamide]
6.07 | CC1(C(=O)NCc2cc3cc(F)c(CNc4ccon4)cc3[nH]2)CC1 [Compound 611, N-((5-fluoro-6-((isoxazol-3-ylamino)methyl)-1H-indol-2-yl)methyl)-1-methylcyclopropane-1-carboxamide]
6.74 | CCC(=O)NCc1cc2cc(F)c(OCc3ccon3)cc2[nH]1 [Compound 137, N-((5-fluoro-6-(isoxazol-3-ylmethoxy)-1H-indol-2-yl)methyl)propionamide]
< 5.04 | COCCOCC(=O)NCc1cc2cc(Cl)c(OCc3cc(C)no3)cc2[nH]1 [Compound 299, N-((5-chloro-6-((3-methylisoxazol-5-yl)methoxy)-1H-indol-2-yl)methyl)-2-(2-methoxyethoxy)acetamide]
6.87 | Cc1cc(COc2cc3[nH]c(CNC(=O)COC(F)F)cc3cc2Cl)on1 [Compound 294, N-((5-chloro-6-((3-methylisoxazol-5-yl)methoxy)-1H-indol-2-yl)methyl)-2-(difluoromethoxy)acetamide]
6.47 | O=C(CC(F)(F)F)NCc1cc2cc(F)c(OCc3cscn3)cc2[nH]1 [Compound 568, 3,3,3-trifluoro-N-((5-fluoro-6-(thiazol-4-ylmethoxy)-1H-indol-2-yl)methyl)propanamide]
